Laboratory results taken from patent US20230416275A1, “MODULATORS OF CYSTIC FIBROSIS TRANSMEMBRANE CONDUCTANCE REGULATOR” (VERTEX PHARMACEUTICALS INCORPORATED, priority 2020, published 2023).

Key:
[1] = target: CFTR-mediated chloride transport in human intestinal epithelial enteroid cells (Homo sapiens, UniProt P13569); test: Membrane potential dye, Enteroid Assay A; assay type: cell-based; conditions: for Ent. A Max Activity (%): % of chloride transport of triple combination control (3 μM N-[(6-amino-2-pyridyl)sulfonyl]-6-(3-fluoro-5-isobutoxy-phenyl)-2-[(4S)-2,2,4-trimethylpyrrolidin-1-yl]pyridine-3-carboxamide, 3 μM tezacaftor, 300 nM acute ivacaftor); for EC50: enteroid cells, 18-24 hours incubation, acute 10 μM forskolin and 300 nM ivacaftor, read-out: Ent. A EC50
Sequence of CFTR-mediated chloride transport in human intestinal epithelial enteroid cells (P13569 with tags, fused parts or gaps DEL508-508): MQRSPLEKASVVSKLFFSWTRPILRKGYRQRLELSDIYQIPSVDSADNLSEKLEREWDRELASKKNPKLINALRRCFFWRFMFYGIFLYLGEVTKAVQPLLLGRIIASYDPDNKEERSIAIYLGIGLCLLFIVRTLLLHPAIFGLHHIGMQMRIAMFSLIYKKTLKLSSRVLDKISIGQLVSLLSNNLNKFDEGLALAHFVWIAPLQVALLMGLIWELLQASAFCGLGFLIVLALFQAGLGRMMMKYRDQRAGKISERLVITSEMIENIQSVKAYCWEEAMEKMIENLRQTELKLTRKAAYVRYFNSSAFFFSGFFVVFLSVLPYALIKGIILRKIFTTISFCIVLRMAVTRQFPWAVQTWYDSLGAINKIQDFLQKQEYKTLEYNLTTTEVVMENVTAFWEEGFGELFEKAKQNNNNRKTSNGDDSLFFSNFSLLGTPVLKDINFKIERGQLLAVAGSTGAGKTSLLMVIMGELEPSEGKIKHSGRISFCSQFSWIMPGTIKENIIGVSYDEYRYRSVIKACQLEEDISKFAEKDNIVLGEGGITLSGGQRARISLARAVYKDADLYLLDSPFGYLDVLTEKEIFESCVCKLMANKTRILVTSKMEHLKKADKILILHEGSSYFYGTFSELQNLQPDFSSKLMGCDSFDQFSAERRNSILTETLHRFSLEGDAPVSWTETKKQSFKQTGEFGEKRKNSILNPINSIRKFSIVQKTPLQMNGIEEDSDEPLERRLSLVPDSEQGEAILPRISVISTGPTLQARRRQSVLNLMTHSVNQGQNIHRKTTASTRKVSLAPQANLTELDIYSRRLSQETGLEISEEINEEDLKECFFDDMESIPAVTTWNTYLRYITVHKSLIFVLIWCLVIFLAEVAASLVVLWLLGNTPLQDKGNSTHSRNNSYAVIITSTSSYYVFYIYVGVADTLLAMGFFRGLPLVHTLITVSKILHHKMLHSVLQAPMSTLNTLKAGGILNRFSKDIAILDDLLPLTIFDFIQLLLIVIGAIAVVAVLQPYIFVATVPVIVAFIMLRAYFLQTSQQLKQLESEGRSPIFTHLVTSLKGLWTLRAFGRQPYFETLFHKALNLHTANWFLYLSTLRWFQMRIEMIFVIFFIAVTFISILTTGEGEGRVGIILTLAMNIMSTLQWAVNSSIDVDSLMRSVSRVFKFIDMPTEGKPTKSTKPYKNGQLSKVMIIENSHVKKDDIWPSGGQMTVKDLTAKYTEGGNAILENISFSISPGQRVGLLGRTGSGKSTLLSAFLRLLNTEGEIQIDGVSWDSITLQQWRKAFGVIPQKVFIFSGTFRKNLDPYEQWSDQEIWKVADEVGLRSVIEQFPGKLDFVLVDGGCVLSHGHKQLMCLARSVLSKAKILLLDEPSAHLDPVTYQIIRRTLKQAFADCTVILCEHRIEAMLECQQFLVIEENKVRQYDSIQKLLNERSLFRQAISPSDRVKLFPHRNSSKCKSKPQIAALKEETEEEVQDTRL
Experimental: Base medium (ADF+++) consisted of Advanced DMEM/Ham's F12, 2 mM Glutamax, 10 mM HEPES, […] penicillin/streptomycin.
Intestinal enteroid maintenance medium (IEMM) consisted of ADF+++, 1×B27 supplement, 1×N2 supplement, 1.25 mM N-acetyl cysteine, 10 mM Nicotinamide, 50 ng/mL hEGF, 10 nM Gastrin, 1 μg/mL hR-spondin-1, 100 ng/mL hNoggin, TGF-b type 1 inhibitor A-83-01, 100 μg/mL Primocin, 10 μM P38 MAPK inhibitor SB202190.
Bath 1 Buffer consisted of 1 mM MgCl2, 160 mM NaCl, 4.5 mM KCl, 10 mM HEPES, 10 mM Glucose, 2 mM CaCl2.
Chloride Free Buffer consisted of 1 mM Magnesium Gluconate, 2 mM Calcium Gluconate, 4.5 mM Potassium Gluconate, 160 mM Sodium Gluconate, 10 mM HEPES, 10 mM Glucose.
Bath1 Dye Solution consisted of Bath 1 Buffer, 0.04% Pluronic F127, 20 μM Methyl Oxonol, 30 μM CaCCinh-A01, 30 μM Chicago Sky Blue.
Chloride Free Dye Solution consisted of Chloride Free Buffer, 0.04% Pluronic F127, 20 μM Methyl Oxonol, 30 μM CaCCinh-A01, 30 μM Chicago Sky Blue.
Chloride Free Dye Stimulation Solution consisted of Chloride Free Dye Solution, 10 μM forskolin, 100 μM IBMX, and 300 nM Compound III.
Human intestinal epithelial enteroid cells were obtained from the Hubrecht Institute for Developmental Biology and Stem Cell Research, Utrecht, The Netherlands and expanded in T-Flasks as previously described (Dekkers J F, Wiegerinck C L, de Jonge H R, Bronsveld I, Janssens H M, de Winter-de Groot K M, Brandsma A M, de Jong N W M, Bijvelds M J C, Scholte B J, Nieuwenhuis E E S, van den Brink S, Clevers H, van der Ent C K, Middendorp S and M Beekman J M. A functional CFTR assay using primary cystic fibrosis intestinal organoids. Nat Med. 2013 July; 19(7):939-45).
c. Enteroid Cell Harvesting and Seeding
Cells were recovered in cell recovery solution, collected by centrifugation at 650 rpm for 5 minutes at 4° C., resuspended in TrypLE and incubated for 5 minutes at 37° C. Cells were then collected by centrifugation at 650 rpm for 5 minutes at 4° C. and resuspended in IEMM containing 10 μM ROCK inhibitor (RI). The cell suspension was passed through a 40 μm cell strainer and resuspended at 1×10^6 cells/mL in IEMM containing 10 μM RI. Cells were seeded at 5000 cells/well into multi-well plates and incubated for overnight at 37° C., 95% humidity and 5% CO2 prior to assay.
d. Membrane Potential Dye, Enteroid Assay A
Enteroid cells were incubated with test compound in IEMM for 18-24 hours at 37° C., 95% humidity and 5% CO2. […] Briefly, cells were washed 5 times in Bath 1 Buffer. Bath 1 Dye Solution was added, and the cells were incubated for 25 minutes at room temperature. Following dye incubation, cells were washed 3 times in Chloride Free Dye Solution. Chloride transport was initiated by addition of Chloride Free Dye Stimulation Solution and the fluorescence signal was read for 15 minutes. […] Chloride transport was then expressed as a percentage of the chloride transport following treatment with 3 μM N-[(6-amino-2-pyridyl)sulfonyl]-6-(3-fluoro-5-isobutoxy-phenyl)-2-[(4S)-2,2,4-trimethylpyrrolidin-1-yl]pyridine-3-carboxamide, 3 μM (R)-1-(2,2-difluorobenzo[d][1,3]dioxol-5-yl)-N-(1-(2,3-dihydroxypropyl)-6-fluoro-2-(1-hydroxy-2-methylpropan-2-yl)-1H-indol-5-yl)cyclopropanecarboxamide and 300 nM acute N-[2,4-bis(1,1-dimethylethyl)-5-hydroxyphenyl]-1,4-dihydro-4-oxoquinoline-3-carboxamide triple combination control (% Activity).

[2] = target: T1, F508del in NIH 3T3 cells (Homo sapiens, UniProt P13569, DEL508-508); test: 3T3 assay: membrane potential optical assay for F508del correction; assay type: cell-based, mouse; conditions: for EC50 / 3T3 Max Activity (%): F508del NIH 3T3 cells; for EC50: compound incubation 18-24 hours at 37° C., forskolin activation, read-out: 3T3 EC50; for Emax: NIH3T3, F508del NIH 3T3 cells, read-out: 3T3 Max Activity (%); for Emax / 3T3 Max Activity (%): efficacy compared to lumacaftor in combination with acutely added 300 nM Ivacaftor
T1 construct: expressed in transfected cells
T1 sequence (P13569 with tags, fused parts or gaps DEL508-508): as above
From the text: a. Membrane Potential Optical Methods for Assaying F508del Modulation Properties of Compounds
The assay utilizes fluorescent voltage sensing dyes to measure changes in membrane potential using a fluorescent plate reader (e.g., FLIPR III, Molecular Devices, Inc.) as a readout for increase in functional F508del in NIH 3T3 cells. The driving force for the response is the creation of a chloride ion gradient in conjunction with channel activation by a single liquid addition step after the cells have previously been treated with compounds and subsequently loaded with a voltage sensing dye.
b. Identification of Corrector Compounds
To identify correctors of F508del, a single-addition HTS assay format was developed. This HTS assay utilizes fluorescent voltage sensing dyes to measure changes in membrane potential on the FLIPR III as a measurement for increase in gating (conductance) of F508del in F508del NIH 3T3 cells. The F508del NIH 3T3 cell cultures were incubated with the corrector compounds at a range of concentrations for 18-24 hours at 37° C., and subsequently loaded with a redistribution dye. The driving force for the response is a Cl^− ion gradient in conjunction with channel activation with forskolin in a single liquid addition step using a fluorescent plate reader such as FLIPR III.
Bath Solution #1: (in mM) NaCl 160, KCl 4.5, CaCl2 2, MgCl2 1, HEPES 10, pH 7.4 with NaOH.
Chloride-free bath solution: Chloride salts in Bath Solution #1 (above) are substituted with gluconate salts.
NIH3T3 mouse fibroblasts stably expressing F508del are used for optical measurements of membrane potential. The cells are maintained at 37° C. in 5% CO2 and 90% humidity in Dulbecco's modified Eagle's medium supplemented with 2 mM glutamine, 10% fetal bovine serum, 1×NEAA, b-ME, 1× pen/strep, and 25 mM HEPES in 175 cm^2 culture flasks. For all optical assays, the cells were seeded at ˜20,000/well in 384-well Matrigel-coated plates. For the correction assays, the cells are cultured at 37° C. with and without compounds for 16-24 hours.

Row | Structure (SMILES) | EC50 [1] | EC50 [2] | Emax [2] | 3T3 Max Activity (%) [2] | Ent. A Max Activity (%) [1]
1 | Cc1cccc(C)c1-c1cc2nc(n1)NS(=O)(=O)c1cccc(c1)NC(=O)CCc1cccc(c1)O2 [Compound 108] | 3000 to 30000 nM | < 1000 nM | > 60% |  | +++ (+++ is >60%)
2 | Cc1cccc(C)c1-c1cc2nc(n1)NS(=O)(=O)c1cccc(c1)NC(=O)[C@@H]1C[C@@H](CN(CC(C3CC3)C3CC3)C1)O2 [Compound 24] | < 1000 nM | < 1000 nM | > 60% |  | ++ (++ is 30-60%)
3 | Cc1cccc(C)c1-c1cc2nc(n1)NS(=O)(=O)c1cccc(c1)NC(=O)c1ccc(Cl)c(c1)O2 [Compound 117] | 1000 to 3000 nM | < 1000 nM | > 60% |  | +++ (+++ is >60%)
4 | Cc1cccc(C)c1-c1cc2nc(n1)NS(=O)(=O)c1cccc(c1)NC(=O)[C@@H]1C[C@@H](CN(C(=O)NC(C)(C)C)C1)O2 [Compound 44] | 3000 to 30000 nM | < 1000 nM | > 60% |  | +++ (+++ is >60%)
5 | Cc1cccc(C)c1-c1cc2nc(n1)NS(=O)(=O)c1cccc(c1)NC(=O)Cc1cccc(c1)O2 [Compound 109] | 3000 to 30000 nM | 1000 to 3000 nM | > 60% |  | ++ (++ is 30-60%)
6 | Cc1cccc(C)c1-c1cc2nc(n1)NS(=O)(=O)c1cccc(c1)NC(=O)[C@@H]1C[C@@H](CN(C(=O)OCCF)C1)O2 [Compound 33] | 1000 to 3000 nM | < 1000 nM | > 60% |  | ++ (++ is 30-60%)
7 | Cc1cccc(C)c1-c1cc2nc(n1)NS(=O)(=O)c1cccc(c1)NC(=O)[C@@H]1C[C@@H](CN(C3CCCCC3)C1)O2 [Compound 10, (3S,7R)-5-cyclohexyl-19-(2,6-dimethylphenyl)-2-oxa-15λ^6-thia-5,9,16,18,21-pentaazatetracyclo[15.3.1.13,7.110,14]tricosa-1(21),10(22),11,13,17,19-hexaene-8,15,15-trione] | 1000 to 3000 nM | < 1000 nM |  |  | ++ (++ is 30-60%)
8 | Cc1cccc(C)c1-c1cc2nc(n1)NS(=O)(=O)c1cccc(c1)NC(=O)[C@H]1CNC[C@@H](C1)O2 [Compound 47] |  |  | 30 to 60% |  | + (+ is <30%)
9 | CC(C)c1ccccc1-c1cc2nc(n1)NS(=O)(=O)c1cccc(c1)NC(=O)c1cccc(c1)O2 [Compound 81] | 3000 to 30000 nM | < 1000 nM | > 60% |  | ++ (++ is 30-60%)

More lines, main results first:

Row | EC50 [1] | EC50 [2] | Emax [2] | 3T3 Max Activity (%) [2] | Structure (SMILES) | Ent. A Max Activity (%) [1]
10 | 1000 to 3000 nM | < 1000 nM | > 60% |  | Cc1cc2cc(c1)C(=O)Nc1cccc(c1)S(=O)(=O)Nc1nc(cc(-c3c(C)cccc3C)n1)O2 [Compound 110] | ++ (++ is 30-60%)
11 | < 1000 nM | < 1000 nM | > 60% |  | Cc1cccc(C)c1-c1cc2nc(n1)NS(=O)(=O)c1cccc(c1)NC(=O)[C@@H]1C[C@@H](CN(CCC3CC3)C1)O2 [Compound 28] | ++ (++ is 30-60%)
12 | 1000 to 3000 nM | < 1000 nM | > 60% |  | Cc1cccc(C)c1-c1cc2nc(n1)NS(=O)(=O)c1cccc(c1)NC(=O)[C@@H]1C[C@@H](CN(C(=O)C(C)(C)C)C1)O2 [Compound 46] | +++ (+++ is >60%)
13 | 1000 to 3000 nM | 1000 to 3000 nM |  | +++ (+++ is >60%) | Cc1cccc(C)c1-c1cc2nc(n1)NS(=O)(=O)c1cccc(c1)NC(=O)[C@H]1CCC[C@H](C1)O2 (single isomer, unassigned) [Compound 71, 5-(2,6-dimethylphenyl)-9,9-dioxo-2-oxa-9λ^6-thia-6,8,15,23-tetraazatetracyclo[15.3.1.13,7.110,14]tricosa-3,5,7(23),10(22),11,13-hexaen-16-one] | +++ (+++ is >60%)
14 | 1000 to 3000 nM | 1000 to 3000 nM |  | +++ (+++ is >60%) | Cc1cccc(C)c1-c1cc2nc(n1)NS(=O)(=O)c1cccc(c1)NC(=O)[C@H]1CCC[C@H](C1)O2 (single isomer, unassigned) [Compound 70, 5-(2,6-Dimethylphenyl)-9,9-dioxo-2-oxa-9λ^6-thia-6,8,15,23-tetraazatetracyclo[15.3.1.13,7.110,14]tricosa-3,5,7(23),10(22),11,13-hexaen-16-one] | ++ (++ is 30-60%)
15 | 3000 to 30000 nM | < 1000 nM | > 60% |  | Cc1cccc(C)c1-c1cc2nc(n1)NS(=O)(=O)c1cccc(c1)NC(=O)[C@H]1CCC[C@H](C1)O2 (single isomer, unassigned) [Compound 68, 5-(2,6-dimethylphenyl)-9,9-dioxo-2-oxa-9λ^6-thia-6,8,15,23-tetraazatetracyclo[15.3.1.13,7.110,14]tricosa-3,5,7(23),10(22),11,13-hexaen-16-one] | ++ (++ is 30-60%)
16 |  | < 1000 nM | > 60% |  | Cc1cccc(C)c1-c1cc2nc(n1)NS(=O)(=O)c1cccc(c1)NC(=O)[C@H]1C[C@H](CN(CCC(C)(C)C)C1)O2 [Compound 11, (3R,7S)-5-(3,3-Dimethylbutyl)-19-(2,6-dimethylphenyl)-2-oxa-15λ^6-thia-5,9,16,18,21-pentaazatetracyclo[15.3.1.13,7.110,14]tricosa-1(21),10(22),11,13,17,19-hexaene-8,15,15-trione] | + (+ is <30%)
